Measured values as given in patent US12655116B2, “Substituted isophthalic acid diamides” (Bayer Aktiengesellschaft, priority 2020, dated 2026).

Assays:
PHBPU = assay: Post-emergence herbicidal action against PHBPU; assay type: in vivo, Pharbitis purpurea
How it was run: (§1)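 Herbicidal effect was scored visually in percent after about 3 weeks in the greenhouse. Plants had been raised in sandy loam and treated post-emergence at the one-leaf stage with formulated compound at 600 to 800 l/ha water plus 0.2% wetting agent.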

MATIN = assay: Pre-emergence herbicidal action against MATIN; assay type: in vivo, Matricaria inodora; settings: for pest or weed control at 20 g/ha / pest or weed control at 80 g/ha: Tripleurospermum inodorum, 504 h
How it was run: (§2)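 Herbicidal effect was assessed 3 weeks after treatment by visual comparison with untreated controls, 100% denoting dead plants. Aqueous WP or EC preparations had been applied at 600 to 800 l/ha with 0.2% wetting agent to the soil covering freshly sown seeds.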

POLCO = assay: Pre-emergence herbicidal action against POLCO; assay type: in vivo, Polygonum convolvulus; settings: dosage 80 g/ha; for pest or weed control at 80 g/ha: Fallopia convolvulus, 504 h
Description: Seeds of monocotyledonous and dicotyledonous weed plants and crop plants are laid out in sandy loam soil in wood-fiber pots and covered with soil. The compounds of the invention, formulated in the form of wettable powders (WP) or as emulsion concentrates (EC), are then applied to the surface of the covering soil in the form of an aqueous suspension or emulsion at a water application rate equivalent to 600 to 800 l/ha, with addition of 0.2% wetting agent. After the treatment, the pots are placed in a greenhouse and kept under good growth conditions for the trial plants. The damage to the test plants is scored visually after a test period of 3 weeks by comparison with untreated controls (herbicidal activity in percent (%): 100% activity=the plants have died, 0% activity=like control plants). […] The tables below illustrate, in an illustrative manner, the post-emergence herbicidal action of the compounds of the invention, the herbicidal activity being stated in percent.

ECHCG [1] = assay: Pre-emergence herbicidal action against ECHCG; assay type: in vivo, Echinochloa crus-galli; settings: 80 g/ha
How it was run: as §2

VIOTR [2] = assay: Pre-emergence herbicidal action against VIOTR; assay type: in vivo, Viola tricolor
How it was run: as §2

AMARE [3] = assay: Pre-emergence herbicidal action against AMARE; assay type: in vivo, Amaranthus retroflexus
How it was run: as §2

ALOMY [4] = assay: Pre-emergence herbicidal action against ALOMY; assay type: in vivo, Alopecurus myosuroides; settings: 80 g/ha, pre-emergence, scored visually after 3 weeks vs untreated controls (100% = plants have died, 0% = like control plants); for pest or weed control at 80 g/ha: Alopecurus myosuroides, 504 h
How it was run: as §2

VIOTR [5] = assay: Post-emergence herbicidal action against VIOTR; assay type: in vivo, Viola tricolor; settings: 20 g/ha; for pest or weed control at 20 g/ha: Viola tricolor, 504 h
How it was run: as §1

ABUTH [6] = assay: Pre-emergence herbicidal action against ABUTH; assay type: in vivo, Abutilon theophrasti; settings: for pest or weed control at 80 g/ha: Abutilon theophrasti, 504 h
How it was run: as §2

AVEFA = assay: Pre-emergence herbicidal action against AVEFA; assay type: in vivo, Avena fatua; settings: 80 g/ha, pre-emergence
How it was run: as §2

VERPE [7] = assay: Pre-emergence herbicidal action against VERPE; assay type: in vivo, Veronica persica; settings: dosage 80 g/ha
How it was run: as §2

DIGSA = assay: Pre-emergence herbicidal action against DIGSA; assay type: in vivo, Digitaria sanguinalis
How it was run: as §2

SETVI [8] = assay: Pre-emergence herbicidal action against SETVI; assay type: in vivo, Setaria viridis; settings: dosage 80 g/ha; for pest or weed control at 80 g/ha: Setaria viridis, 504 h
How it was run: as §2

AMARE [9] = assay: Post-emergence herbicidal action against AMARE; assay type: in vivo, Amaranthus retroflexus; settings: Amaranthus retroflexus, 504 h, 20 g/ha, visual assessment about 3 weeks after treatment, 100% = plants have died, 0% = like control plants
How it was run: as §1

VERPE [10] = assay: Post-emergence herbicidal action against VERPE; assay type: in vivo, Veronica persica; settings: Veronica persica, 504 h, 20 g/ha
How it was run: as §1

SETVI [11] = assay: Post-emergence herbicidal action against SETVI; assay type: in vivo, Setaria viridis; settings: Setaria viridis, 504 h, dosage 20 g/ha
How it was run: as §1

ALOMY [12] = assay: Post-emergence herbicidal action against ALOMY; assay type: in vivo, Alopecurus myosuroides; settings: Alopecurus myosuroides, 504 h, dosage 20 g/ha, visual assessment about 3 weeks after treatment vs untreated controls
How it was run: as §1

ABUTH [13] = assay: Post-emergence herbicidal action against ABUTH; assay type: in vivo, Abutilon theophrasti; settings: Abutilon theophrasti, 504 h, visual assessment about 3 weeks after treatment vs untreated controls; for pest or weed control at 5 g/ha: dosage 5 g/ha; for pest or weed control at 20 g/ha: dosage 20 g/ha
How it was run: as §1

ECHCG [14] = assay: Post-emergence herbicidal action against ECHCG; assay type: in vivo, Echinochloa crus-galli; settings: Echinochloa crus-galli, 504 h, dosage 20 g/ha
How it was run: as §1

[15] = 80 g/ha, scored visually after 3 weeks vs untreated controls (100% = plants have died, 0% = like control plants)
[16] = Amaranthus retroflexus, 504 h, 80 g/ha, scored visually after 3 weeks vs untreated controls, 100% = plants have died, 0% = like control plants

Q: With Cn1nnnc1NC(=O)c1ccc(Br)c(C(=O)NCC2CC2)c1Cl [Example 1-180] as the molecule, how does the “Post-emergence action against PHBPU in %” value (PHBPU; dosage 5 g/ha) read?
A: The value was 90%.

Q: What about the “Post-emergence action against PHBPU in %” value (PHBPU; dosage 20 g/ha) of the same molecule?
A: Its value is 90%.

Q: What about the “Pre-emergence action against MATIN in %” value (MATIN; dosage 20 g/ha) of the same molecule?
A: Its value is 90%.

Q: And the “Pre-emergence action against MATIN in %” value (MATIN; dosage 80 g/ha)?
A: Its value is 100%.

Q: What about the “Pre-emergence action against POLCO in %” value (POLCO) of the same molecule?
A: Its value is 100%.

Q: And the “Pre-emergence action against ECHCG in %” value (ECHCG [1])?
A: Its value is 100%.

Q: And the “Pre-emergence action against VIOTR in %” value (VIOTR [2]; dosage 20 g/ha)?
A: Its value is 80%.

Q: What about the “Pre-emergence action against VIOTR in %” value (VIOTR [2]; dosage 80 g/ha) of the same molecule?
A: The value was 100%.

Q: What about the “Pre-emergence action against AMARE in %” value (AMARE [3]; 20 g/ha, scored visually after 3 weeks vs untreated controls, 100% = plants have died, 0% = like control plants) of the same molecule?
A: The value was 100%.

Q: And the “Pre-emergence action against AMARE in %” value (AMARE [3]; [15])?
A: Its value is 100%.

Q: What about the “Pre-emergence action against ALOMY (herbicidal activity)” value (ALOMY [4]) of the same molecule?
A: Its value is 100%.

Q: What about the “Post-emergence action against VIOTR in %” value (VIOTR [5]) of the same molecule?
A: The value was 90%.

Q: What about the “Pre-emergence action against ABUTH (herbicidal activity)” value (ABUTH [6]; [15]) of the same molecule?
A: The value was 100%.

Q: What about the “Pre-emergence action against ABUTH (herbicidal activity in percent)” value (ABUTH [6]; dosage 20 g/ha, scored visually after 3 weeks vs untreated controls, 100% = plants have died, 0% = like control plants) of the same molecule?
A: Its value is 90%.

Q: What about the “Pre-emergence action against AVEFA in %” value (AVEFA) of the same molecule?
A: The value was 80%.

Q: What about the “Pre-emergence action against VERPE in %” value (VERPE [7]) of the same molecule?
A: Its value is 80%.

Q: And the “Pre-emergence action against DIGSA in %” value (DIGSA; dosage 20 g/ha)?
A: The value was 100%.

Q: What about the “Pre-emergence action against DIGSA in %” value (DIGSA; dosage 80 g/ha) of the same molecule?
A: Its value is 100%.

Q: What about the “Pre-emergence action against SETVI in %” value (SETVI [8]) of the same molecule?
A: The value was 90%.

Q: For CNC(=O)c1c(OC)ccc(C(=O)Nc2nnnn2C)c1Cl [Example 1-354], which pest or weed control at 20 g/ha (MATIN; dosage 20 g/ha) is on record?
A: The pest or weed control at 20 g/ha was 80%.

Q: And the pest or weed control at 80 g/ha (MATIN; dosage 80 g/ha)?
A: Its pest or weed control at 80 g/ha is 80%.

Q: And the pest or weed control at 20 g/ha (AMARE [9])?
A: Its pest or weed control at 20 g/ha is 100%.

Q: What about the pest or weed control at 20 g/ha (VERPE [10]) of the same molecule?
A: The pest or weed control at 20 g/ha was 90%.

Q: What about the pest or weed control at 80 g/ha (POLCO) of the same molecule?
A: Its pest or weed control at 80 g/ha is 80%.

Q: And the pest or weed control at 80 g/ha (AMARE [3]; [16])?
A: The pest or weed control at 80 g/ha was 100%.

Q: What about the pest or weed control at 20 g/ha (SETVI [11]) of the same molecule?
A: Its pest or weed control at 20 g/ha is 100%.

Q: And the pest or weed control at 20 g/ha (ALOMY [12])?
A: The pest or weed control at 20 g/ha was 80%.

Q: And the pest or weed control at 80 g/ha (ALOMY [4])?
A: The pest or weed control at 80 g/ha was 80%.

Q: What about the pest or weed control at 20 g/ha (VIOTR [5]) of the same molecule?
A: The pest or weed control at 20 g/ha was 90%.

Q: And the pest or weed control at 80 g/ha (ABUTH [6]; [15])?
A: The pest or weed control at 80 g/ha was 100%.

Q: What about the pest or weed control at 5 g/ha (ABUTH [13]) of the same molecule?
A: The pest or weed control at 5 g/ha was 90%.

Q: And the pest or weed control at 20 g/ha (ABUTH [13])?
A: The pest or weed control at 20 g/ha was 100%.

Q: What about the pest or weed control at 80 g/ha (SETVI [8]) of the same molecule?
A: The pest or weed control at 80 g/ha was 90%.

Q: What does the source list for CCNC(=O)c1c(OC)ccc(C(=O)Nc2nnnn2C)c1Cl [Example 1-355]?
A: pest or weed control at 20 g/ha (PHBPU; Ipomoea purpurea, 504 h, dosage 20 g/ha): 80%; pest or weed control at 20 g/ha (MATIN; dosage 20 g/ha): 80%; pest or weed control at 80 g/ha (MATIN; dosage 80 g/ha): 100%; pest or weed control at 20 g/ha (AMARE [9]): 100%; pest or weed control at 20 g/ha (VERPE [10]): 90%; pest or weed control at 80 g/ha (POLCO): 80%; pest or weed control at 80 g/ha (VIOTR [2]; Viola tricolor, 504 h, dosage 80 g/ha): 100%; pest or weed control at 20 g/ha (AMARE [3]; Amaranthus retroflexus, 504 h, 20 g/ha, scored visually after 3 weeks vs untreated controls, 100% = plants have died, 0% = like control plants): 100%; pest or weed control at 80 g/ha (AMARE [3]; [16]): 100%; pest or weed control at 20 g/ha (ALOMY [12]): 80%; pest or weed control at 80 g/ha (ALOMY [4]): 90%; pest or weed control at 20 g/ha (VIOTR [5]): 100%; pest or weed control at 80 g/ha (ABUTH [6]; [15]): 100%; pest or weed control at 20 g/ha (ECHCG [14]): 90%; pest or weed control at 80 g/ha (VERPE [7]; Veronica persica, 504 h): 100%; pest or weed control at 5 g/ha (ABUTH [13]): 80%; pest or weed control at 20 g/ha (ABUTH [13]): 100%; pest or weed control at 80 g/ha (SETVI [8]): 90%
